Reference: publication PMC11201828, “A Novel Dimeric Short Peptide Derived from α-Defensin-Related Rattusin with Improved Antimicrobial and DNA-Binding Activities” (Biomolecules, 2024)
Converted amounts (≈) assume the structure as drawn. Positions of bridges follow the written chain, without caps; N, C: chain ends. Residues, ends and D or L forms follow the SMILES beside them. Chains are numbered I, II in the order given.

Columns and labels:
[1] = tested on: MRSA CCARM 3089; type: cell-based, methicillin-resistant Staphylococcus aureus; details: CCARM 3089, 24 h
Description: (§1) The minimal inhibitory concentrations (MICs) of the peptides were determined following the broth microdilution method recommended by the Clinical and Laboratory Standards Institute (CLSI). Briefly, bacteria in their mid-logarithmic growth phase were diluted in Mueller–Hinton broth (MHB) (Difco, Franklin Lakes, NJ, USA) and aliquoted into a 96-well microtiter plate at a density of 4 × 10^6 CFU/well. The assay included both Gram-negative bacteria (Escherichia coli, Salmonella typhimurium, and Pseudomonas aeruginosa) and Gram-positive bacteria (Bacillus subtilis, Staphylococcus aureus, and Staphylococcus epidermidis), as well as methicillin-resistant Staphylococcus aureus strains (MRSA: CCARM 3089, CCARM 3090, CCARM 3095). The samples were subjected to a two-fold serial dilution before being added to the wells, and the plate was incubated at 37 °C for 24 h. The MIC was defined as the lowest peptide concentration that prevented visible bacterial growth. All experiments were conducted in triplicate and included appropriate growth and sterility controls.

[2] = tested on: MRSA CCARM 3090; type: cell-based, methicillin-resistant Staphylococcus aureus; details: CCARM 3090, 24 h
Description: as §1

[3] = tested on: MRSA CCARM 3095; type: cell-based, methicillin-resistant Staphylococcus aureus; details: CCARM 3095, 24 h
Description: as §1

[4] = tested on: S. aureus cytoplasmic membrane; assay: Membrane depolarization assay, DiSC3-(5) dye; type: cell-based, Staphylococcus aureus; details: intact S. aureus; 32 µM F2, 4 µM melittin, 16 µM buforin-2; peptide added after 300 s; Figure 2
Description: The cytoplasmic membrane depolarization activity of the peptides was assessed using the membrane-potential-sensitive dye DiSC3-(5), following methodologies previously described in the literature. Staphylococcus aureus was cultured in Luria–Bertani (LB) broth at 37 °C until reaching an optical density (O.D.) at 600 nm of 0.3–0.4, indicative of mid-logarithmic phase growth. The cells were then washed with a buffer containing 20 mM glucose and 5 mM HEPES, and the cell suspension was diluted to an O.D. 600 of 0.05 in the same buffer. Potassium chloride (KCl) was added to achieve a final concentration of 100 mM to equilibrate potassium ion levels. The concentrations used for each peptide in our membrane depolarization assays were based on their respective MICs: 32 µM for F2, 4 µM for Melittin, and 16 µM for Buferin-2.
Fluorescence was monitored using an F-4500 FL fluorescence spectrophotometer (Shimadzu, Kyoto, Japan) with excitation and emission wavelengths set at 622 nm and 670 nm, respectively. Melittin, known for its membrane-disrupting properties, served as a positive control, while buforin-2, which translocates across membranes without causing depolarization, acted as a negative control. Both melittin and buforin-2 were tested at concentrations twice their minimal inhibitory concentration (MIC) levels.

[5] = tested on: S. aureus cell membranes; assay: SYTOX Green uptake assay; type: cell-based, Staphylococcus aureus; details: 32 µM F2, 4 µM melittin, 16 µM buforin-2, Figure 3
Description: The membrane permeabilization activity of the peptides was determined using the SYTOX Green uptake assay, as described previously. S. aureus was cultured in LB broth at 37 °C until it reached an optical density (O.D.) at 600 nm of 0.4, indicative of the mid-logarithmic phase. The cells were then washed and diluted to an O.D. 600 of 0.05 using 1× PBS buffer. The dye (SYTOX Green nucleic acid stain) was added to the bacterial suspension at a concentration of […], and the mixture was incubated at 4 °C for 18 h with agitation in the dark. The SYTOX Green-treated bacteria were placed in a quartz cell, where they were simultaneously exposed to the positive control melittin (2× MIC), the negative control buforin-2 (2× MIC), and the F2 dimer (2× MIC). An F-4500 FL fluorescence spectrophotometer (Shimadzu, Kyoto, Japan) was used to monitor fluorescence (excitation 485 nm, emission 520 nm).

[6] = tested on: E. coli ML-35; assay: ONPG hydrolysis assay (inner membrane permeability); type: cell-based, Escherichia coli; details: 32 µM F2, 4 µM melittin, 16 µM buforin-2, Figure 4
Description: The internal membrane permeability was assessed using the ONPG hydrolysis assay, as described previously. E. coli ML-35p, which constitutively expresses cytoplasmic β-galactosidase and periplasmic β-lactamase, is resistant to ampicillin and deficient in lactose permease. E. coli ML-35 was incubated in LB broth containing ampicillin at 37 °C until the optical density (O.D.) at 600 nm reached 1.0. The cells were then washed with a buffer consisting of 97% 1× PBS and 3% LB and diluted to an O.D. 600 of 0.4 in the same buffer. A mixture of 50 μL of serially diluted peptide and 20 μL of dye (ONPG, final concentration 3 mM) was added to 100 μL of the bacterial suspension in a sterilized 96-well plate. Melittin served as a positive control, while buforin-2 was used as a negative control. The hydrolysis of ONPG was measured using a PHOMO Elisa reader (Autobio, Zhengzhou, China) at 405 nm for each time period.

[7] = tested on: plasmid DNA (pHIS2); assay: DNA-binding gel retardation assay; details: plasmid pHIS2 145 μg/mL, 37 °C, 1 h, 1% agarose gel; Figure 5
Description: We evaluated the DNA-binding ability of F2 and F2 (C4S) monomeric peptides using gel retardation experiments. The concentration of plasmid DNA (pHIS2) was fixed at 145 μg/mL. The peptide was serially diluted in a binding buffer consisting of 10 mM Tris-HCl (pH 8.0), 5% glucose, 50 μg/mL BSA, 1 mM EDTA, and 20 mM KCl. This solution was then mixed with the DNA and incubated at 37 °C for 1 h. After incubation, the DNA–peptide mixture was stained with DNA gel loading dye. The samples were analyzed using 1% agarose gel electrophoresis in 0.5× TAE buffer. Plasmid bands were detected with a UV illuminator (Bio-Rad, Hercules, CA, USA).

[8] = tested on: Bacillus subtilis; type: cell-based; details: 24 h
Description: as §1

[9] = tested on: Escherichia coli; type: cell-based; details: 24 h
Description: as §1

[10] = tested on: Pseudomonas aeruginosa; type: cell-based; details: 24 h
Description: as §1

[11] = tested on: Salmonella typhimurium; type: cell-based; details: murium, 24 h
Description: as §1

[12] = tested on: Staphylococcus aureus; type: cell-based; details: 24 h
Description: as §1

[13] = tested on: Staphylococcus epidermidis; type: cell-based; details: 24 h
Description: as §1

[14] = tested on: bacterial strains; type: cell-based; details: strain not given; see Tables 1 and 2
Description: as §1

[15] = biological target: F2 (rattusin fragment, residues 12-18, dimeric hairpin loop region) (rat); assay: RP-HPLC; monomeric F2 (before disulfide bonding) incubated in MIC buffer; formation of the disulfide-bonded dimer monitored by RP-HPLC

stoichiometry N [15] | Compound | MIC [1] [µg/mL] | MIC [2] [µg/mL] | MIC [3] [µg/mL] | cytoplasmic membrane depolarization (DiSC3-(5) fluorescence) [4] | SYTOX Green uptake (fluorescence intensity) [5] | ONPG hydrolysis (absorbance at 405 nm) [6] | peptide concentration giving DNA band retardation [7] [µM] | MIC [8] [µg/mL] | MIC [9] [µg/mL] | MIC [10] [µg/mL] | MIC [11] [µg/mL] | MIC [12] [µg/mL] | MIC [13] [µg/mL] | MIC [14] [µg/mL]
 | CC(C)[C@H](NC(=O)[C@H](CCCNC(=N)N)NC(=O)[C@@H](N)CCCNC(=N)N)C(=O)N[C@@H](CSSC[C@H](NC(=O)[C@@H](NC(=O)[C@H](CCCNC(=N)N)NC(=O)[C@@H](N)CCCNC(=N)N)C(C)C)C(=O)N[C@@H](CCCNC(=N)N)C(=O)N[C@@H](CC(N)=O)C(=O)N[C@H](C(N)=O)[C@@H](C)O)C(=O)N[C@@H](CCCNC(=N)N)C(=O)N[C@@H](CC(N)=O)C(=O)N[C@H](C(N)=O)[C@@H](C)O [F2] (I: H-RRVCRNT-NH2 / II: H-RRVCRNT-NH2; disulfide I:4-II:4; N-terminus assumed) | 58 (≈ 32.1 µM) | 116 (≈ 64.3 µM) | 58 (≈ 32.1 µM) | did not cause any membrane depolarization | did not show a similar increase in fluorescence intensity | did not alter the absorbance | 4 | 29 (≈ 16.1 µM) | 15 (≈ 8.31 µM) | 15 (≈ 8.31 µM) | 15 (≈ 8.31 µM) | 58 (≈ 32.1 µM) | 15 (≈ 8.31 µM) | 15 (≈ 8.31 µM)
2 | F2 (rattusin fragment, residues 12-18, dimeric hairpin loop region) (peptide) |  |  |  |  |  |  |  |  |  |  |  |  |  | 
